Tests used:
HCT-15 = experiment: Growth inhibition of HCT15 cells; format: functional; conditions: Homo sapiens
[1] = Solubility in phosphate buffer at pH 4.5; format: physicochemical

| GI50 (HCT-15) | solubility [1] | Structure (SMILES) |
| --- | --- | --- |
| 1900 nM |  | COc1ccc(-c2cc(-c3cccc(Cl)c3)nc3c2CC(=O)Nc2ccccc2-3)cc1 |
| 2700 nM |  | O=C1Cc2c(-c3ccccc3)cc(-c3cccc(Cl)c3)nc2-c2ccccc2N1 |
| > 100000 nM |  | COc1ccc2c(c1)NC(=O)Cc1c(-c3ccccc3)cc(-c3cccc(Cl)c3)nc1-2 |
| 3000 nM |  | COc1ccc(-c2cc(-c3ccccc3)c3c(n2)-c2ccccc2NC(=O)C3)cc1Cl |
| 13800 nM | < 5 µg/mL | Cl.NCCCCOc1ccc(-c2cc(-c3ccccc3)c3c(n2)-c2ccccc2NC(=O)C3)cc1Cl |
| 870 nM | < 5 µg/mL | CN1CCN(CCCCOc2ccc(-c3cc(-c4ccccc4)c4c(n3)-c3ccccc3NC(=O)C4)cc2Cl)CC1.Cl.Cl |
| 810 nM | > 500 µg/mL | CN1CCN(CCCCOc2ccc3c(c2)NC(=O)Cc2c(-c4ccccc4)cc(-c4cccc(Cl)c4)nc2-3)CC1.Cl.Cl |
| 910 nM | > 500 µg/mL | CN1CCN(CCCCOc2ccc(-c3cc(-c4cccc(Cl)c4)nc4c3CC(=O)Nc3ccccc3-4)cc2)CC1.Cl.Cl |
| 1200 nM | > 500 µg/mL | Cl.O=C1Cc2c(-c3ccc(OCCCCN4CCOCC4)cc3)cc(-c3cccc(Cl)c3)nc2-c2ccccc2N1 |
| 2300 nM | 5 µg/mL | Cl.O=C1Cc2c(-c3ccccc3)cc(-c3ccc(OCCCCN4CCOCC4)c(Cl)c3)nc2-c2ccccc2N1 |
| 6600 nM | < 5 µg/mL | Cl.NCCCCOc1ccc(-c2cc(-c3cccc(Cl)c3)nc3c2CC(=O)Nc2ccccc2-3)cc1 |
| 1600 nM | > 500 µg/mL | Cl.O=C1Cc2c(-c3ccccc3)cc(-c3cccc(Cl)c3)nc2-c2ccc(OCCCCN3CCOCC3)cc2N1 |
| 1800 nM | < 5 µg/mL | Cl.NCCCCOc1ccc2c(c1)NC(=O)Cc1c(-c3ccccc3)cc(-c3cccc(Cl)c3)nc1-2 |
